Patent US20140135310A1, “SULPHONAMIDE DERIVATIVES OF ALICYCLIC AMINES FOR THE TREATMENT OF CENTRAL NERVOUS SYSTEM DISEASES” (Adamed Sp. z o.o., priority 2011, published 2014)

What was measured:
5-HT6 receptor = target: T1, 5-HT6 receptor (Homo sapiens, UniProt P50406); assay: Radioligand binding assay, serotoninergic 5-HT6 receptors; details: for inhibition at 1 µM: binding assay result in %, Table 5a; for Ki: read-out: Inhibition constants Ki, 5-HT6
T1 construct: purchased PerkinElmer
Outline: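 Values are Ki from Cheng–Prusoff, taking IC50 from Hill nonlinear regression of competition curves and KD from a Scatchard plot. Specific binding was total minus binding with excess unlabelled ligand. Radioligand displacement was detected by scintillation counting, and data were also reported as percent of control specific binding.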

M3 muscarinic receptors = target: T2, M3 muscarinic receptors (Homo sapiens, UniProt P20309); assay: Radioligand binding assay, muscarinic M3 receptors; details: test compound 1×10^−6 M
T2 construct: expressed in transfected cells; host or cells: CHO cells
T2 sequence (P20309 whole entry): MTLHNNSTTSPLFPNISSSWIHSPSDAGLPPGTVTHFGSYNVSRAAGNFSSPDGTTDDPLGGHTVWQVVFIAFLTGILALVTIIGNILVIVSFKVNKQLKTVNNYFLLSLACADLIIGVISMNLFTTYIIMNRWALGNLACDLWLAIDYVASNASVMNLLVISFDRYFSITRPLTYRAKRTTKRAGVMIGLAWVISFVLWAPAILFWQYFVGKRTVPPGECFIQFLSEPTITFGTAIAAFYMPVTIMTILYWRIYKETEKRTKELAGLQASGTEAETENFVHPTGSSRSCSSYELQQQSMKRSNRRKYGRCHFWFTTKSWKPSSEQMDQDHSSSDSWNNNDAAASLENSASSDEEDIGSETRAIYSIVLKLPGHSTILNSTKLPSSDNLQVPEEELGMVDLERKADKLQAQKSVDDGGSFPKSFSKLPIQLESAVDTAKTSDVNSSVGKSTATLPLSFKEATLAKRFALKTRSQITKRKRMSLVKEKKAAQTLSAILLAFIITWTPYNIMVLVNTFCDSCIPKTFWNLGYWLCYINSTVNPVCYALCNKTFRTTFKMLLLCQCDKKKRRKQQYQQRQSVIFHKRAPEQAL
Outline: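 Radioligand competition binding, detected by scintillation counting; non-specific binding defined with excess unlabelled ligand. Results given as % inhibition of control specific binding; IC50 from Hill-equation fit of competition curves, Ki via Cheng-Prusoff with radioligand KD from Scatchard plot.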

[1] = target: dopaminergic receptors D2 (Homo sapiens, UniProt P14416); assay: Radioligand binding assay, dopaminergic D2 receptors; details: for inhibition at 1 µM: binding assay, test compound 1×10^−6 M; for Ki: read-out: Inhibition constants Ki for D2 receptors, D2
dopaminergic receptors D2, sequence (P14416 whole entry): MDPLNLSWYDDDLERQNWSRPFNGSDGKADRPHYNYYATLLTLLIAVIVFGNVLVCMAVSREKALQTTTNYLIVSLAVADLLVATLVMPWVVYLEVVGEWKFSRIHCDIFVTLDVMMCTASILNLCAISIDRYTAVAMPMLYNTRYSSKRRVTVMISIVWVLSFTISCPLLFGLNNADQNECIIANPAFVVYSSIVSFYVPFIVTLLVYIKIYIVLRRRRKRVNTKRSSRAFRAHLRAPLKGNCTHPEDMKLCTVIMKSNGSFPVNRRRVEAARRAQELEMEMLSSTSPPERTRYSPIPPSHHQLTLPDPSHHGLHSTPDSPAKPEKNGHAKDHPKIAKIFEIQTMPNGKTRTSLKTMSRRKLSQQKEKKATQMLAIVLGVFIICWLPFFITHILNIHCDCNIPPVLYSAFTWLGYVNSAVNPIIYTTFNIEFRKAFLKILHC
Outline: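 Values derive from competition curves: percent inhibition of control specific binding was fitted by Hill non-linear regression for IC50, and Ki calculated with Cheng–Prusoff from radioligand concentration and KD (Scatchard). Bound ligand was detected by scintillation counting.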

5-HT2C receptor = target: T3, 5-HT2C receptor (Homo sapiens, UniProt P28335); assay: Radioligand binding assay, serotoninergic 5-HT2C receptors; details: test compound 1×10^−6 M
T3 construct: expressed in transfected cells; host or cells: HEK-293 cells
T3 sequence (P28335 33-458): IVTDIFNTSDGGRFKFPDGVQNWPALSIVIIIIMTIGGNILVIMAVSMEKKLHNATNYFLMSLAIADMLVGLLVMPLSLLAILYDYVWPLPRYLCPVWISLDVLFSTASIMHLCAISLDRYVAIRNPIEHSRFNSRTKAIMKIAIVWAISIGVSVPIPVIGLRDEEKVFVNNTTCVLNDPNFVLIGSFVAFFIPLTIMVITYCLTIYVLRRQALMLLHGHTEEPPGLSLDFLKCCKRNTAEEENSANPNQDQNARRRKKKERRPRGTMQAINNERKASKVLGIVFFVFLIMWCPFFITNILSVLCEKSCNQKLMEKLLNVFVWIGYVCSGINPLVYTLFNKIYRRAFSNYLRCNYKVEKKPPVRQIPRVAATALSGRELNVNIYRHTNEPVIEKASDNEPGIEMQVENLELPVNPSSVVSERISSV

5-HT7 receptor = target: T4, 5-HT7 receptor (Homo sapiens, UniProt P34969); assay: Radioligand binding assay, serotoninergic 5-HT7 receptors; details: binding assay result in %, Table 5a
T4 construct: purchased PerkinElmer
T4 sequence (P34969 whole entry): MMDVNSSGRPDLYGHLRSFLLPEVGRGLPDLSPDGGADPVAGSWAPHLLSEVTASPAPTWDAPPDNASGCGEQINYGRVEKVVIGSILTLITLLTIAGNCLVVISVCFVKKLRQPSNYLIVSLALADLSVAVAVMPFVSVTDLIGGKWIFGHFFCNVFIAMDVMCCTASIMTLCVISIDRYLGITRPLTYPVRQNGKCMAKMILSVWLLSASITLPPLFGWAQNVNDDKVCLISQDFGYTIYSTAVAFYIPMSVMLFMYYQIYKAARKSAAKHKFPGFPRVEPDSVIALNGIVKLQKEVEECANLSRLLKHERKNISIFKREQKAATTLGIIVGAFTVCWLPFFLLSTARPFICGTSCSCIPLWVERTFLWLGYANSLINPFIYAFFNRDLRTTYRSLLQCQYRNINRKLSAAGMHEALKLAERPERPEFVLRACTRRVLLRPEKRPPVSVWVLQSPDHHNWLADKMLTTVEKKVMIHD
Outline: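 Ki values used the Cheng–Prusoff equation, with KD from Scatchard analysis, applied to IC50 from Hill fits of human 5-HT7 radioligand competition curves. Bound radioligand was counted by scintillation, and excess unlabelled ligand set the non-specific binding.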

5-HT2A receptor = target: T5, 5-HT2A receptor (Homo sapiens, UniProt P28223); assay: Radioligand binding assay, serotoninergic 5-HT2A receptors; details: for inhibition at 1 µM: binding assay result in %, Table 5a; for Ki: read-out: Inhibition constants Ki, 5-HT2A
T5 construct: purchased PerkinElmer
T5 sequence (P28223 whole entry): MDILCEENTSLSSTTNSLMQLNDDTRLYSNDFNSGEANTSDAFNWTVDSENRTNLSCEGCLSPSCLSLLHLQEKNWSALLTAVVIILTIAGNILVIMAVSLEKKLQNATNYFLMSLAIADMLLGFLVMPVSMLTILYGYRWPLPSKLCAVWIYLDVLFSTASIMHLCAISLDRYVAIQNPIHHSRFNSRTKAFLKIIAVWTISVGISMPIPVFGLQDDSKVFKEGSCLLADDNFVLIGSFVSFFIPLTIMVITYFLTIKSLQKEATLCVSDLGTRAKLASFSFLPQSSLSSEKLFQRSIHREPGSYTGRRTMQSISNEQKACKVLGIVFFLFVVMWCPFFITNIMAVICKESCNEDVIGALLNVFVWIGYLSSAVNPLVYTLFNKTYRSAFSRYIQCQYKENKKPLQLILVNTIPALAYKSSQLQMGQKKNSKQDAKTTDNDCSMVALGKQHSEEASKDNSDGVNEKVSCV
Outline: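 Competition curves from scintillation-counted specific binding (total minus binding with excess unlabelled ligand) were Hill-fitted to give IC50, converted to Ki via Cheng-Prusoff using Scatchard-derived Kd.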

[2] = target: T6, 5-HT1A receptor (rat hippocampus) (Rattus norvegicus, UniProt P19327); assay: Radioligand binding assay, serotoninergic 5-HT1A receptors; details: binding assay result in %, Table 5a
T6 construct: hippocampus; from tissue; host or cells: rat hippocampus
T6 sequence (P19327 1-422): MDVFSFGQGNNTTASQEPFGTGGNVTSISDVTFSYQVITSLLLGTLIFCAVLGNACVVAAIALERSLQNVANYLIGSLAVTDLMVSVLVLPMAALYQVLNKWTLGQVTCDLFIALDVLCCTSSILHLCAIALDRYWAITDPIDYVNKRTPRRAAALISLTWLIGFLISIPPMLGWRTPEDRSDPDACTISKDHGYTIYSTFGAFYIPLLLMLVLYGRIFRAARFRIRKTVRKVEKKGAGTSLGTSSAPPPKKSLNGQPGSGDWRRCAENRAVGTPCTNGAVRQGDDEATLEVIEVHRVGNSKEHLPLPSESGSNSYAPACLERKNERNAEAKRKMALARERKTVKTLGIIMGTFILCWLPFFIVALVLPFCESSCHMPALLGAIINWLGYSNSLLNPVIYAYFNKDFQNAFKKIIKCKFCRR

T1 sequence (P50406 whole entry): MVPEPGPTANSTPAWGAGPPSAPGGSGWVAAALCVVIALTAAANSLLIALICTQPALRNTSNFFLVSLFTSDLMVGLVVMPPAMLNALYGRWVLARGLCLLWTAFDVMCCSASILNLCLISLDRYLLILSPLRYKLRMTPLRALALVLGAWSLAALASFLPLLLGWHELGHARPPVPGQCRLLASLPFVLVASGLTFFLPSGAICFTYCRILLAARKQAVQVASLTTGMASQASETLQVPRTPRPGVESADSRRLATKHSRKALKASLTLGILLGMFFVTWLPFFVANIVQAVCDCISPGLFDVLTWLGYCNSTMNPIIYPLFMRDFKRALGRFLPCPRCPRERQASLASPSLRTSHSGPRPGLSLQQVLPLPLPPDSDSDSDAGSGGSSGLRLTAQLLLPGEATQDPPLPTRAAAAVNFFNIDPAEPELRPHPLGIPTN

| Structure (SMILES) | inhibition at 1 µM (5-HT6 receptor) | Ki (5-HT6 receptor) | inhibition at 1 µM (M3 muscarinic receptors) | inhibition at 1 µM [1] | Ki [1] | inhibition at 1 µM (5-HT2C receptor) | inhibition at 1 µM (5-HT7 receptor) | inhibition at 1 µM (5-HT2A receptor) | Ki (5-HT2A receptor) | inhibition at 1 µM [2] |
| --- | --- | --- | --- | --- | --- | --- | --- | --- | --- | --- |
| Cc1c(S(=O)(=O)NCC2CN(CCCc3noc4cc(F)ccc34)C2)sc2ccc(F)cc12 [Compound 130, 5-Fluoro-N-[[1-[3-(6-fluoro-1,2-benzoxazol-3-yl)propyl]azetidin-3-yl]methyl]-3-methyl-benzothiophene-2-sulphonamide] | 98% | 9.7 nM | 15% | 97% | 10 nM | 89% | 98% | 100% | 4.2 nM | 85% |
| O=S(=O)(NCC1CCN(CCOc2cccc3ccccc23)C1)c1ccc2ccccc2c1 (centres unmarked) [Compound 124, N-[[1-[2-(1-Naphthyloxy)ethyl]pyrrolidin-3-yl]methyl]naphthalene-2-sulphonamide] | 99% |  | 49% | 94% |  | 80% | 99% | 87% |  | 99% |
| Cc1cccc(S(=O)(=O)NC2CCN(CCCc3c[nH]c4ccc(Cl)cc34)C2)c1 (centres unmarked) [Compound 86, N-[1-[3-(5-chloro-1H-indol-3-yl)propyl]pyrrolidin-3-yl]-3-methyl-benzenesulphonamide] | 98% | 13 nM | 1% | 93% |  |  | 98% | 97% |  | 101% |
| O=S(=O)(NCC1CN(CCOc2cccc3ccccc23)C1)c1ccc2ccccc2c1 [Compound 122, N-[[1-[2-(1-Naphthyloxy)ethyl]azetidin-3-yl]methyl]naphthalene-2-sulphonamide] | 99% | 13 nM | 30% | 99% |  | 98% | 100% | 83% |  | 99% |
| CC1(C)Cc2cccc(OCCN3CCC(NS(=O)(=O)c4cccc(O)c4)C3)c2O1 (centres unmarked) [Compound 107, N-[1-[2-[(2,2-Dimethyl-3H-benzofuran-7-yl)oxy]ethyl]pyrrolidin-3-yl]-3-hydroxybenzenesulphonamide] | 39% |  | 8% | 89% |  | 86% | 84% | 97% |  | 100% |
| O=S(=O)(NCC1CN(CCCc2noc3cc(F)ccc23)C1)c1ccc2scnc2c1 [Compound 132, N-[[1-[3-(6-Fluoro-1,2-benzoxazol-3-yl)propyl]azetidin-3-yl]methyl]-1,3-benzothiazole-5-sulphonamide] | 69% |  | 10% | 82% |  | 43% | 94% | 97% |  | 57% |
| CC1(C)Cc2cccc(OCCN3CCC(NS(=O)(=O)c4ccc5ccccc5c4)C3)c2O1 (centres unmarked) [Compound 108, N-[1-[2-[(2,2-Dimethyl-3H-benzofuran-7-yl)oxy]ethyl]pyrrolidin-3-yl]naphthalene-2-sulphonamide] | 59% |  | -4% | 93% |  |  | 98% | 98% |  | 98% |
| O=S(=O)(NC1CCN(CCOc2cccc3ccccc23)C1)c1ccc2ccccc2c1 (centres unmarked) [Compound 116, N-[1-[2-(1-Naphthyloxy)ethyl]pyrrolidin-3-yl]naphthalene-2-sulphonamide] | 95% | 71 nM | 9% | 91% |  |  | -49% | 96% |  | 99% |
| O=S(=O)(NCC1CN(CCCc2noc3cc(F)ccc23)C1)c1ccc2ccccc2c1 [Compound 134, N-[[1-[3-(6-Fluoro-1,2-benzoxazol-3-yl)propyl]azetidin-3-yl]methyl]-naphthalene-2-sulphonamide] | 94% |  | 34% | 96% |  | 87% | 95% | 99% |  | 73% |
| Cc1c(S(=O)(=O)NCC2CN(CCCc3noc4cc(F)ccc34)C2)sc2ccc(Cl)cc12 [Compound 131, 5-Chloro-N-[[1-[3-(6-fluoro-1,2-benzoxazol-3-yl)propyl]azetidin-3-yl]-methyl]-3-methyl-benzothiophene-2-sulphonamide] | 97% | 9 nM | 17% | 97% | 19 nM | 88% | 95% | 99% | 5.5 nM | 87% |
| O=S(=O)(NCC1CN(CCCc2noc3cc(F)ccc23)C1)c1cccc2ccccc12 [Compound 133, N-[[1-[3-(6-Fluoro-1,2-benzoxazol-3-yl)propyl]azetidin-3-yl]methyl]-naphthalene-1-sulphonamide] | 92% |  | 17% | 93% |  | 47% | 97% | 95% |  | 52% |
